Source: PMC7822874, “Chemoprotective antimalarials identified through quantitative high-throughput screening of Plasmodium blood and liver stage parasites” (Scientific Reports, 2021)
Where two headings read alike, the source gives them in different places.

What was measured:
[1] = tested on: P. berghei-ANKA-GFP-LucCON liver stage parasites in HepG2-A16-CD81EGFP cells; experiment: P. berghei liver stage Pb-Luc assay, Method 1 (UCSD, 1536-well); assay type: cell-based, Plasmodium berghei; details: Plasmodium berghei, 48 h, P. berghei liver stage, average of 2 wells on a 1536 well plate; for activity at 1 µM: 1 µM compound treatment (10 mM stocks); for activity at 3 µM: 3 µM compound treatment (10 mM stocks)
[2] = tested on: Plasmodium falciparum Dd2 asexual blood stage parasites; experiment: microbe, parasite or virus in culture; set-up: species or system Plasmodium falciparum Dd2 in human erythrocytes; single determination (one 11-point concentration-response curve); details: Plasmodium falciparum, DD2, Erythrocyte, 72 h; read-out: AC50
HepG2-A16-CD81EGFP cells = details: average of 2 wells; for HepG2 1uM growth rep1 / HepG2 1uM growth rep2: HepG2, 1 µM compound treatment (10 mM stocks); for HepG2 1uM growth rep1 / HepG2 3uM growth rep1: replicate 1, normalized; for HepG2 1uM growth rep2 / HepG2 3uM growth rep2: replicate 2, normalized; for HepG2 3uM growth rep1 / HepG2 3uM growth rep2: HepG2, 3 µM compound treatment (10 mM stocks)
[3] = replicate 1, normalized, read-out: PbLuc 1uM growth rep1
[4] = replicate 2, normalized, read-out: PbLuc 1uM growth rep2
[5] = replicate 1, normalized, read-out: PbLuc 3uM growth rep1
[6] = replicate 2, normalized, read-out: PbLuc 3uM growth rep2

Row | SMILES | activity at 1 µM [1, 3] | activity at 1 µM [1, 4] | activity at 3 µM [1, 5] | activity at 3 µM [1, 6] | AC50 [2] | HepG2 1uM growth rep1 (HepG2-A16-CD81EGFP cells) | HepG2 1uM growth rep2 (HepG2-A16-CD81EGFP cells) | HepG2 3uM growth rep1 (HepG2-A16-CD81EGFP cells) | HepG2 3uM growth rep2 (HepG2-A16-CD81EGFP cells)
1 | O=C(CSc1nc(Nc2ccccc2)nc(N2CCOCC2)n1)Nc1cc(Cl)ccc1O [MLS001035450-01] | 97% | 93% | 67% | 102% | 2.37 µM | 100% | 92% | 83% | 88%
2 | Cc1noc(C)c1CSc1nc2sc3c(c2c(=O)n1C)CCCC3 [MLS000564913-01] | 120% | 107% | 61% | 89% | 8.41 µM | 92% | 88% | 88% | 92%
3 | Cc1ccc(-c2cc(C(F)(F)F)n3ncc(C(=O)N4CCCCC4c4cccnc4)c3n2)cc1 (stereo not drawn) [MLS000729132-01] | 126% | 132% | 100% | 119% | 1.88 µM | 101% | 94% | 89% | 91%
4 | Cc1ccccc1C1C(C#N)=C2N=C(N)c3c(sc4c3CCCCC4)N2C2=C1C(=O)CCC2 (stereo not drawn) [MLS000543544-01] | 129% | 99% | 79% | 94% | 2.66 µM | 94% | 95% | 90% | 96%
5 | CCOc1ccccc1NC(=O)Cn1c(-c2ccc(Cl)cc2)noc1=O [MLS000529487-01] | 100% | 128% | 102% | 133% | 5.96 µM | 101% | 91% | 84% | 90%
6 | Cc1ccc(Sc2ccc(NC(=O)CCl)cc2)cc1C [MLS000334846-01] | 124% | 83% | 88% | 81% | 9.44 µM | 92% | 91% | 92% | 96%
7 | COc1ccc(C2c3[nH]c4ccccc4c3C[C@H]3C(=O)N(C4CCN(Cc5ccccc5)CC4)CC(=O)N23)cc1OC (stereo partly drawn) [MLS001215281-01] | 95% | 94% | 66% | 79% | 2.99 µM | 107% | 95% | 91% | 90%
8 | COc1ccc(Nc2cc(C)nc(NCc3ccccc3)n2)cc1 [MLS000768693-01] | 94% | 74% | 21% | 35% | 13.3 µM | 90% | 91% | 82% | 84%
9 | CCCCN(C(=O)c1cccc(S(=O)(=O)N(C)c2ccc(C)cc2)c1)c1c(N)n(CCCC)c(=O)[nH]c1=O [MLS001128188-01] | 100% | 88% | 85% | 111% | 5.31 µM | 96% | 92% | 90% | 93%
10 | CCC(=O)N1CCc2cc(Br)cc(S(=O)(=O)N3CCCCC3CC)c21 (stereo not drawn) [MLS000936752-01] | 89% | 100% | 89% | 116% | 1.06 µM | 106% | 96% | 87% | 93%
11 | COc1ccc([C@@]2(C(C)C)ON(c3ccccc3C(F)(F)F)C2=O)cc1 [MLS002206606-01] | 98% | 100% | 88% | 122% | 4.22 µM | 102% | 93% | 83% | 85%
12 | Nc1nonc1-n1nnc(C(=O)N/N=C/c2ccc(Br)cc2)c1-c1ccc2c(c1)OCO2 [MLS001142619-01] | 115% | 112% | 108% | 122% | 0.422 µM | 91% | 88% | 86% | 93%
13 | Clc1ccc2c(N/N=C/c3cccc(Br)c3)ccnc2c1 [MLS000336198-01] | 63% | 77% | 45% | 62% | 10.6 µM | 83% | 80% | 87% | 87%
14 | COc1ccc(NC(=O)C(c2ccc(Cl)cc2)C(C)C)cn1 (stereo not drawn) [MLS001149289-01] | 131% | 130% | 155% | 159% | 1.88 µM | 104% | 98% | 90% | 87%
15 | CCOC(=O)C1CCN(Cc2cc(Cl)c3ccccc3c2O)CC1 [MLS001171913-01] | 100% | 93% | 91% | 110% | 1.88 µM | 88% | 93% | 88% | 86%
16 | CCOC(=O)c1c(NC(=O)C[n+]2ccc(N(C)C)cc2)sc(C)c1C [MLS000710762-01] | 75% | 72% | 18% | 30% | 1.33 µM | 91% | 84% | 65% | 65%
17 | CCCCc1c(C)c(C#N)c2nc3ccccc3n2c1Nc1c(C)n(C)n(-c2ccccc2)c1=O [MLS000555448-01] | 131% | 125% | 114% | 127% | 2.66 µM | 92% | 93% | 87% | 94%
18 | COc1ccc(OC)c(-n2c(S)nnc2-c2cccc(O)c2)c1 [MLS000089016-01] | 141% | 98% | 86% | 109% | 4.22 µM | 97% | 93% | 90% | 96%
19 | CCOC(=O)c1c(CN2CCN(c3ccccc3)CC2)oc2cc(Br)c(O)cc12 [MLS001198242-01] | 136% | 107% | 96% | 86% | 1.88 µM | 109% | 100% | 87% | 95%
20 | COc1cc(NC(=O)c2cc([N+](=O)[O-])ccc2NC(=O)CNC2CCCCC2C)cc(OC)c1 (stereo not drawn) [MLS000950459-01] | 94% | 109% | 82% | 122% | 5.96 µM | 96% | 92% | 90% | 90%
21 | COc1cc2ccccc2cc1C(=O)N1CCCC(C(F)(F)F)C1 (stereo not drawn) [MLS002180647-01] | 90% | 108% | 85% | 115% | 5.31 µM | 105% | 90% | 83% | 89%
22 | O=C(Nc1ccc(C2=NCCN2)cc1)c1ccc(C(=O)Nc2ccc(C3=NCCN3)cc2)c(Cl)c1 [MLS000737368-01] | 107% | 94% | 72% | 81% | 0.473 µM | 102% | 94% | 85% | 95%
23 | Cc1ccc(C)c2sc(N3CCN(C(=O)c4ccc([N+](=O)[O-])o4)CC3)nc12 [MLS001234268-01] | 97% | 91% | 57% | 53% | 4.73 µM | 104% | 96% | 90% | 99%
24 | COc1cc(C)cc(CN2CCC(Cc3ccccc3)CC2)c1O [MLS001178265-01] | 83% | 95% | 81% | 123% | 0.75 µM | 101% | 92% | 87% | 88%
